TGI data for 15 compounds are collected here from PubChem BioAssay (NCI).

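Compound exposure: 48 hours, 5 concentrations, 96-well plates. TGI: total growth inhibition.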

Some test systems named below: U251 CNS; MDA-MB-231 breast; CCRF-CEM leukemia; NCI-H226 lung; SK-OV-3 ovarian; SK-MEL-5 melanoma; K-562 leukemia; HCC-2998 colon; SNB-75 CNS; RXF 393 renal.
Holding throughout (experiment): NCI-60 cell line screen, 48 h

In the case of `CCCCc1ccc(Nc2nc(N)c3[nH]cnc3n2)cc1`, the TGI in the assay with U251 CNS was 48 µM; in the assay on MDA-MB-231 breast, 39 µM; in the assay with CCRF-CEM leukemia, 52.4 µM; in the assay on NCI-H226 lung it was 53.2 µM; in the assay with SK-OV-3 ovarian it was 52.7 µM; with SK-MEL-5 melanoma, 30.9 µM. The TGI was more than 100 µM in the assay on K-562 leukemia and 46.4 µM with HCC-2998 colon.
On to `Nc1c(Cl)ncnc1NCC1(CO)CCC1`, for which the TGI in the assay on U251 CNS, in the assay on MDA-MB-231 breast, in the assay with CCRF-CEM leukemia, with NCI-H226 lung, with SK-MEL-5 melanoma and in the assay on SNB-75 CNS was more than 100 µM throughout. The TGI in the assay on K-562 leukemia is more than 100 µM.
In the case of `C=C1CN(C(=O)c2cc3cc(OC)c(OC)c(OC)c3[nH]2)c2cc([N+](=O)[O-])ccc21`, the TGI is more than 100 µM with U251 CNS; 88.5 µM in the assay with MDA-MB-231 breast; more than 100 µM in the assay with NCI-H226 lung; more than 100 µM with SK-OV-3 ovarian; more than 100 µM in the assay with SK-MEL-5 melanoma; more than 100 µM in the assay with SNB-75 CNS. Besides, the TGI with K-562 leukemia, in the assay with RXF 393 renal and in the assay on HCC-2998 colon was more than 100 µM throughout.
For the compound `COc1c2c(cc3oc(=O)ccc13)OC(C)(C)C=C2`, the TGI with U251 CNS was 78.5 µM; in the assay on MDA-MB-231 breast, 76.2 µM; with NCI-H226 lung it was more than 125 µM; in the assay with SK-OV-3 ovarian it was more than 125 µM; with SK-MEL-5 melanoma it was 41.8 µM; with SNB-75 CNS it was 56.6 µM. Further, the results for the TGI in the assay on K-562 leukemia and in the assay with HCC-2998 colon were more than 125 µM and 46.3 µM, respectively.
For the compound `C=CCCCN1C(=O)C2C3c4ccccc4C(C=O)(c4ccccc43)C2C1=O` (stereo unspecified), the TGI stood at 24.9 µM in the assay on U251 CNS; 23.5 µM with MDA-MB-231 breast; 17.6 µM with CCRF-CEM leukemia; 60.3 µM with SK-OV-3 ovarian; 23.5 µM in the assay on SK-MEL-5 melanoma; 17.8 µM in the assay on K-562 leukemia. Besides, in the assay with HCC-2998 colon, the TGI stood at 28.5 µM.
As for `CN(C)c1ccc(C(=C2C=CC(=[N+](C)C)C=C2)c2c(O)c(S(=O)(=O)[O-])cc3cc(S(=O)(=O)O)ccc23)cc1`, the TGI with U251 CNS, in the assay with MDA-MB-231 breast, in the assay with NCI-H226 lung, in the assay with SK-OV-3 ovarian, in the assay with SK-MEL-5 melanoma and with SNB-75 CNS was more than 100 µM in each case. Further, the TGI in the assay on K-562 leukemia, with RXF 393 renal and with HCC-2998 colon was more than 100 µM throughout.
For the compound `N.N.NCCCCN.O=C([O-])CCl.O=C([O-])CCl.O=C([O-])CCl.O=C([O-])CCl.[Pt+4].[Pt+4]`, the TGI in the assay on U251 CNS, in the assay with CCRF-CEM leukemia, with SK-OV-3 ovarian, in the assay with SK-MEL-5 melanoma, in the assay on SNB-75 CNS and with K-562 leukemia was more than 50 µM each time. Besides, the TGI in the assay on RXF 393 renal and with HCC-2998 colon was more than 50 µM each time.
For `O=C1CCCn2c3ccccc3c3ccnc1c32`, the TGI was more than 100 µM in the assay with U251 CNS; more than 100 µM in the assay with CCRF-CEM leukemia; 56.4 µM with NCI-H226 lung; more than 100 µM in the assay with SK-OV-3 ovarian; more than 100 µM in the assay with SK-MEL-5 melanoma; more than 100 µM in the assay with SNB-75 CNS. Besides, the results for the TGI with K-562 leukemia, in the assay with RXF 393 renal and in the assay on HCC-2998 colon were more than 100 µM, 68.8 µM and more than 100 µM, respectively.
`c1ccc(C[P+]2(c3ccccc3)CCCCC2)cc1`: the TGI in the assay on U251 CNS was more than 100 µM; in the assay on CCRF-CEM leukemia, more than 100 µM; in the assay with NCI-H226 lung, more than 100 µM; with SK-OV-3 ovarian, more than 100 µM; in the assay with SK-MEL-5 melanoma, 71.9 µM; in the assay with SNB-75 CNS, more than 100 µM. Also, the TGI in the assay with K-562 leukemia, with RXF 393 renal and with HCC-2998 colon was more than 100 µM throughout.
With `O=C1NC(N2CCOCC2)=N/C1=C\c1ccccc1`, the TGI in the assay with U251 CNS, in the assay with MDA-MB-231 breast, in the assay on CCRF-CEM leukemia, in the assay on NCI-H226 lung, in the assay with SK-OV-3 ovarian and with SK-MEL-5 melanoma was more than 100 µM in each case. Moreover, the TGI with SNB-75 CNS and in the assay on HCC-2998 colon was more than 100 µM each time.
`O=C(O)CC(Cc1ccccc1)C(=O)O` (stereo unspecified): the TGI in the assay with U251 CNS, in the assay with CCRF-CEM leukemia, with NCI-H226 lung, in the assay on SK-OV-3 ovarian, in the assay with SK-MEL-5 melanoma and in the assay with K-562 leukemia was more than 100 µM each time. The TGI in the assay on RXF 393 renal and in the assay with HCC-2998 colon was more than 100 µM each time.
`CC1(C)OC2C(CO)OC(/N=C(\NC#N)Oc3ccccc3)C2O1` (stereo unspecified): the TGI in the assay with U251 CNS, in the assay on CCRF-CEM leukemia, in the assay on NCI-H226 lung, with SK-OV-3 ovarian, in the assay with SK-MEL-5 melanoma and with SNB-75 CNS was more than 100 µM throughout. Besides, the TGI in the assay with K-562 leukemia, in the assay with RXF 393 renal and in the assay on HCC-2998 colon was more than 100 µM in each case.
For the compound `NC1=CN2c3ccccc3N(CC(=O)N3CCOCC3)C2C=C1` (stereo unspecified), the TGI in the assay with U251 CNS, in the assay on MDA-MB-231 breast, in the assay on CCRF-CEM leukemia, in the assay on NCI-H226 lung, with SK-OV-3 ovarian and with SK-MEL-5 melanoma was more than 100 µM throughout. The TGI in the assay on SNB-75 CNS, in the assay on K-562 leukemia and with RXF 393 renal was more than 100 µM throughout.
For `COC(CO[Si](C)(C)N[Si](C)(C)OCC(OC)c1ccccc1)c1ccccc1` (stereo unspecified), the TGI in the assay on U251 CNS, in the assay on CCRF-CEM leukemia, in the assay on NCI-H226 lung, in the assay on SK-OV-3 ovarian, in the assay with SK-MEL-5 melanoma and in the assay with SNB-75 CNS was more than 100 µM in each case. In addition, the TGI in the assay on K-562 leukemia, in the assay on RXF 393 renal and in the assay with HCC-2998 colon was more than 100 µM throughout.
In the case of `CO/C=C(/C(=O)OC)c1ccccc1[C@H]1C[C@@H]1c1ccc(OC)cc1`, the TGI with U251 CNS is more than 100 µM; in the assay with MDA-MB-231 breast, 94.2 µM; in the assay on CCRF-CEM leukemia, more than 100 µM; in the assay on NCI-H226 lung, more than 100 µM; with SK-OV-3 ovarian, 60.7 µM; in the assay on SK-MEL-5 melanoma it was 26.2 µM. The TGI is more than 100 µM in the assay with K-562 leukemia, more than 100 µM in the assay with RXF 393 renal and 42.7 µM with HCC-2998 colon.
